Source: patent publication US4845244A, “Production of hydroxyphenylpropionic acid ester having a novel crystalline structure” (Sumitomo Chemical Company, Limited, priority 1985, dated 1989)

Columns and labels:
[1] = Solubility in cyclohexane (Table 2); type: physicochemical; conditions: for Solubility: cyclohexane
[2] = Solubility in water-insoluble recrystallization solvents (statement); type: physicochemical; conditions: water-insoluble solvent other than alicyclic or aliphatic hydrocarbons; in words

Solubility ([1]; 20 °C) [g/100 g cyclohexane]	Solubility ([1]; 30 °C) [g/100 g cyclohexane]	Solubility ([1]; 40 °C) [g/100 g cyclohexane]	Solubility ([1]; 50 °C) [g/100 g cyclohexane]	Solubility ([1]; 55 °C) [g/100 g cyclohexane]	Solubility ([1]; 60 °C) [g/100 g cyclohexane]	Compound	solubility compared with αβ-crystals ([1]; in words, refers to Table 2)	solubility of the αβ-crystals in water-insoluble solvent [2]
0.06	0.1	0.2	0.5	1.1	2.1	Cc1cc(CCC(=O)OCC(C)(C)C2OCC3(CO2)COC(C(C)(C)COC(=O)CCc2cc(C)c(O)c(C(C)(C)C)c2)OC3)cc(C(C)(C)C)c1O (centres unmarked) [δ-Crystal, 3,9-bis{2-[3-(3-tert-butyl-4-hydroxy-5-methylphenyl)propionyloxy]-1,1-dimethylethyl}-2,4,8,10-tetraoxaspiro[5.5]undecane]	lower solubility than that of the αβ-crystals	
0.2	0.5	1.4	4.1	8.5	> 60	Cc1cc(CCC(=O)OCC(C)(C)C2OCC3(CO2)COC(C(C)(C)COC(=O)CCc2cc(C)c(O)c(C(C)(C)C)c2)OC3)cc(C(C)(C)C)c1O (stereo not drawn) [α.eta.-Crystal, 3,9-bis{2-[3-(3-tert-butyl-4-hydroxy-5-methylphenyl)propionyloxy]-1,1-dimethylethyl}-2,4,8,10-tetraoxaspiro[5.5]undecane]		so high that the δ-crystals containing substantially no αβ-crystals can be obtained even at room temperature
